Test systems include COLO 205; SNB-19; MDA-MB-231; IGROV-1; 786-0; SF-295; UACC-257; SK-MEL-2; HT-29; HCT-15; Malme-3M; A549; MOLT-4; RPMI-8226; A498; HCC 2998; SF-268; SK-MEL-28; NCI-H226; SF-539.
Assay in all cases: growth of human tumour cells (NCI), 48 h

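Cultured in 96-well plates, cells were exposed to test compound for 48 hours across five concentrations. At the GI50, growth is halved.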 Activity calls are given as the source filed them. No stated cut-off is given here; in the data, active = GI50 up to about 1.1 µM and inactive = higher. A value given as a limit tells only on which side of the number the result lay.

As to `N=C(N)NS(=O)(=O)c1ccc(Nc2c3ccccc3nc3c(C(=O)NC(CO)(CO)CO)cccc23)cc1`, the GI50 in the test with COLO 205 is 12.6 µM (inactive); with SNB-19, 28.1 µM (inactive); in the test on MDA-MB-231, 21.8 µM (inactive); in the test on IGROV-1, 37.6 µM (inactive); in the test on 786-0, 15.7 µM (inactive); with SF-295, 16.6 µM (inactive). The GI50 was > 100 µM (inactive) in the test with UACC-257; 19.1 µM (inactive) with SK-MEL-2; 21.3 µM (inactive) in the test with HT-29; 93.8 µM in the test with HCT-15; 19.4 µM (inactive) with Malme-3M; 9.66 µM (inactive) in the test with A549. Besides, the GI50 with MOLT-4 was 2.79 µM (inactive); in the test on RPMI-8226, 20.1 µM (inactive); with A498, 19.3 µM (inactive); in the test with HCC 2998 it was 32.1 µM (inactive); in the test on SF-268, 19.5 µM (inactive); with SK-MEL-28, 30.5 µM (inactive).
As for `CN1CC[C@]23c4c5ccc(O)c4O[C@H]2C(O)CC[C@@]3(O)[C@H]1C5` (some centres not stated), the GI50 with NCI-H226, in the test on SF-539, with COLO 205, with SNB-19, in the test on MDA-MB-231 and in the test on IGROV-1 was > 100 µM (inactive) each time. Also, the GI50 with 786-0 is > 100 µM (inactive); with SF-295 it was > 100 µM (inactive); in the test on UACC-257 it was > 100 µM (inactive); in the test with SK-MEL-2, > 100 µM (inactive); in the test with HT-29 it was > 100 µM (inactive); with HCT-15 it was greater than 100 µM. Further, the GI50 in the test with Malme-3M, in the test with A549, in the test with MOLT-4, in the test with RPMI-8226, in the test on A498 and in the test with SF-268 was > 100 µM (inactive) in each case. Moreover, the GI50 in the test with SK-MEL-28 was > 100 µM (inactive).
`COc1cc(/C=C2\N=C(c3ccccc3)N(c3nc4ccc(Sc5ccccc5)cc4[nH]3)C2=O)ccc1O`: the GI50 with COLO 205 was 18 µM (inactive); in the test with SNB-19 it was 31.8 µM (inactive); with MDA-MB-231 it was 25.6 µM (inactive); in the test with IGROV-1 it was 37.8 µM (inactive); in the test with 786-0 it was 21.7 µM (inactive); in the test on SF-295 it was 27.9 µM (inactive). The GI50 in the test with UACC-257 is 18 µM (inactive); in the test with SK-MEL-2, 13.5 µM (inactive); in the test on HT-29, 18.4 µM (inactive); with HCT-15, 21.9 µM; in the test on Malme-3M, 18 µM (inactive); in the test with A549 it was 30.5 µM (inactive). Also, the GI50 with MOLT-4 is 26.1 µM (inactive); in the test on RPMI-8226 it was 16.7 µM (inactive); in the test on A498 it was 21.3 µM (inactive); in the test on HCC 2998, 15.8 µM (inactive); with SF-268, 25.5 µM (inactive); in the test with SK-MEL-28, 21.2 µM (inactive).
Consider `C[N+]12C=CC=C1C(N1CCCC1)c1scc(-c3ccc(F)cc3)c12` (configuration not stated), for which the GI50 with NCI-H226 is 23.5 µM (inactive); in the test on COLO 205, 18.7 µM (inactive); with SNB-19 it was 15.1 µM (inactive); in the test with MDA-MB-231, 42.2 µM (inactive); in the test on IGROV-1 it was 13.1 µM (inactive); with 786-0 it was 47.2 µM (inactive). Further, the GI50 in the test on SF-295 was 58.7 µM (inactive); in the test on SK-MEL-2, 10.5 µM (inactive); in the test on HT-29, 18.3 µM (inactive); with Malme-3M, 60.4 µM (inactive); with A549, 56 µM (inactive); in the test on MOLT-4 it was 21.6 µM (inactive). Moreover, the GI50 in the test on RPMI-8226 is 10.4 µM (inactive); in the test with A498 it was 43.3 µM (inactive); in the test on SF-268, 32.4 µM (inactive); in the test on SK-MEL-28, 66.5 µM (inactive).
With `CCOC(=O)c1nc2ccccc2nc1Oc1ccc(C(=O)OC)cc1`, the GI50 with NCI-H226, in the test with SF-539, with COLO 205, in the test on SNB-19, in the test with MDA-MB-231 and in the test on IGROV-1 was > 100 µM (inactive) each time. Moreover, the GI50 in the test with 786-0 was > 100 µM (inactive); in the test with SF-295, > 100 µM (inactive); in the test with UACC-257, > 100 µM (inactive); in the test with SK-MEL-2, > 100 µM (inactive); in the test on HT-29, > 100 µM (inactive); in the test with HCT-15 it was greater than 100 µM. The GI50 was > 100 µM (inactive) in the test with Malme-3M; > 100 µM (inactive) in the test with A549; 2.87 µM (inactive) with MOLT-4; > 100 µM (inactive) in the test with RPMI-8226; > 100 µM (inactive) in the test on A498; > 100 µM (inactive) in the test with SF-268. The GI50 in the test with SK-MEL-28 is > 100 µM (inactive).
As to `COc1ccc(OC)c(-c2nc3n(c2/C=C2/C(=O)Nc4ccccc42)CCS3)c1`, the GI50 with NCI-H226 was > 100 µM (inactive); in the test on SF-539, 47.9 µM (inactive); with COLO 205, 39.5 µM (inactive); in the test on SNB-19 it was > 100 µM (inactive); with MDA-MB-231, 25.6 µM (inactive); with IGROV-1, 36 µM (inactive). Besides, the GI50 in the test on 786-0 is > 100 µM (inactive); in the test with SF-295 it was 29.4 µM (inactive); with UACC-257, 63.1 µM (inactive); in the test with SK-MEL-2 it was 26 µM (inactive); in the test on HT-29, 47.6 µM (inactive); in the test with HCT-15 it was 42.3 µM. Besides, the GI50 is 92.7 µM (inactive) in the test on Malme-3M; 63.7 µM (inactive) with A549; 27 µM (inactive) with MOLT-4; 35 µM (inactive) in the test on RPMI-8226; 48.5 µM (inactive) in the test with A498; 67.5 µM (inactive) in the test on SF-268. Besides, in the test on SK-MEL-28, the GI50 is > 100 µM (inactive).
In the case of `COC(=O)[C@@]12OC[C@]34[C@H]([C@@H](O)[C@@H]1O)[C@@]1(C)CC(=O)C(O)=C(C)[C@@H]1C[C@H]3OC(=O)[C@H](OC(=O)/C=C(\C)C(C)C)[C@@H]24` [BRUCEANTIN], the GI50 was 0.02 µM (active) with NCI-H226; 0.02 µM (active) with SF-539; 0.0242 µM (active) in the test on COLO 205; 0.02 µM (active) in the test on SNB-19; 0.0384 µM (active) in the test on MDA-MB-231; 0.02 µM (active) in the test with IGROV-1. Further, the GI50 in the test on 786-0 was 0.0292 µM (active); in the test on SF-295 it was 0.02 µM (active); with UACC-257 it was 0.0208 µM (active); with SK-MEL-2, 0.0209 µM (active); in the test on HT-29, 0.02 µM (active); with HCT-15 it was 0.0214 µM. Further, the GI50 with Malme-3M was 0.02 µM (active); with A549 it was 0.02 µM (active); with MOLT-4 it was 0.02 µM (active); with RPMI-8226, 0.02 µM (active); in the test on A498, 0.02 µM (active); in the test on SF-268, 0.0205 µM (active). In the test on SK-MEL-28, the GI50 was 0.02 µM (active).
With `O=[N+]([O-])c1ccc(/C=C/c2cc(-c3ccccc3)nc3ccc4ccccc4c23)cc1`, the GI50 in the test on NCI-H226, in the test on SF-539, in the test on COLO 205, in the test with SNB-19, in the test with MDA-MB-231 and in the test on IGROV-1 was > 100 µM (inactive) throughout. Further, the GI50 was > 100 µM (inactive) in the test with 786-0; > 100 µM (inactive) with SF-295; > 100 µM (inactive) in the test with UACC-257; > 100 µM (inactive) with HT-29; greater than 100 µM in the test with HCT-15; > 100 µM (inactive) in the test with Malme-3M. For the same molecule, the GI50 in the test on A549, with MOLT-4, in the test on RPMI-8226, in the test with A498, in the test with HCC 2998 and in the test on SF-268 was > 100 µM (inactive) in each case. Moreover, the GI50 with SK-MEL-28 was > 100 µM (inactive).
In the case of `COc1ccc(-c2coc3cc(OC)cc(O)c3c2=O)cc1` [4',7-DIMETHOXY-5-HYDROXYGENISTEIN], the GI50 was > 100 µM (inactive) in the test on NCI-H226; 78.3 µM (inactive) with SF-539; > 100 µM (inactive) with COLO 205; 31.4 µM (inactive) with SNB-19; 31 µM (inactive) in the test on MDA-MB-231; > 100 µM (inactive) in the test with IGROV-1. The GI50 with 786-0 is 25.8 µM (inactive); with SF-295, > 100 µM (inactive); in the test on UACC-257, > 100 µM (inactive); in the test with HT-29 it was > 100 µM (inactive); in the test on HCT-15, greater than 100 µM; in the test on Malme-3M it was > 100 µM (inactive). The GI50 is > 100 µM (inactive) with A549; > 100 µM (inactive) with RPMI-8226; 24.8 µM (inactive) with A498; > 100 µM (inactive) in the test with HCC 2998; 51.3 µM (inactive) in the test on SF-268; > 100 µM (inactive) in the test on SK-MEL-28.
For `CC(=O)c1nc2ccccc2n1C(C)C(=O)c1ccccc1` (configuration not stated), the GI50 with NCI-H226 was > 100 µM (inactive); in the test with SF-539, > 100 µM (inactive); with COLO 205 it was > 100 µM (inactive); with SNB-19, 77.6 µM (inactive); in the test with MDA-MB-231, 36.1 µM (inactive); in the test on IGROV-1, 30.2 µM (inactive). Further, the GI50 was 36.9 µM (inactive) in the test with 786-0; 54.6 µM (inactive) in the test on SF-295; 54.6 µM (inactive) in the test with UACC-257; > 100 µM (inactive) in the test with HT-29; 81.5 µM in the test with HCT-15; 50.2 µM (inactive) in the test on Malme-3M. Also, the GI50 in the test with A549 was 27.1 µM (inactive); in the test on MOLT-4, 34.9 µM (inactive); in the test with RPMI-8226 it was 51.6 µM (inactive); with A498, > 100 µM (inactive); in the test on SF-268, 26.5 µM (inactive); with SK-MEL-28, > 100 µM (inactive).
`CCOc1c(OC)cc(C2c3cc4c(c(OCC)c3CC3COC(=O)C32)OCO4)cc1OC` (configuration not stated): the GI50 is 6.84 µM (inactive) in the test on NCI-H226; 1.75 µM (inactive) in the test with SF-539; 2.22 µM (inactive) with COLO 205; 3.65 µM (inactive) in the test with SNB-19; 2.17 µM (inactive) in the test on MDA-MB-231; 2.41 µM (inactive) in the test with IGROV-1. In addition, the GI50 was 2.62 µM (inactive) in the test on 786-0; 1 µM (active) with SF-295; 0.912 µM (active) with UACC-257; 13.2 µM (inactive) in the test with SK-MEL-2; 2.47 µM (inactive) with HT-29; 0.608 µM with HCT-15. Moreover, the GI50 in the test with Malme-3M was 11.1 µM (inactive); with A549, 2.86 µM (inactive); in the test on MOLT-4 it was 2.65 µM (inactive); in the test on RPMI-8226, 3.75 µM (inactive); in the test with A498, 10.9 µM (inactive); with SF-268, 7.21 µM (inactive). The GI50 with SK-MEL-28 is 16.6 µM (inactive).

The record behind these values is ChEMBL document CHEMBL1201862, “PubChem BioAssay data set” (2004).
